Laboratory results as given in patent US5622933A, “Multiple branch peptide constructions for use against HIV” (priority 1993, dated 1997).

Columns and labels:
[1] = tested on: HIV; test: Infection of HT-29 human colon cells through the GalCer receptor; type: cell-based
Method: The activity of MBPCs was evaluated on this alternative infection route as follows: HT-29 cells (5×10^5 cells) were incubated with MBPCs (5×10^-6 M) for 45 minutes and subsequently exposed to 100 TCID50 of HIV-1 (LAI), HIV-1 (NDK) or HIV-2 (ROD) for 1 hour at 37° C. The residual inoculum was inactivated by three successive trypsinations and infection was assessed by: i) direct measurement of HIV-1 p24^gag (for HIV-1 isolates) and RT activity (for HIV-1 and HIV-2 isolates) in the culture supernatants; ii) co-cultivation with human PBLs. The cells were treated with the MBPCs as follows: 1- none; 2- [GPGRAF]8 -MLC; 3- [GPGRAF]8 -MLCD; 4- [GPG(R)DAF]8 -MLC; 5- [GPGRAF]16 -MLC; 6- [[…]]4 -MLC; and 7- [[…]]4 -MLC, with all amino acids in L form unless noted otherwise. The results shown in FIG. 5A, which correspond to infection with HIV-1 (NDK), are representative of three separate experiments and the MBPC used is indicated by the number on the x-axis. The concentration of p24^gag (pg/ml) was measured during the co-culture experiment with PBLs (+++, >10 ng/ml 10 days post-infection; ++, >1 ng/ml 13 days post-infection; +, >1 ng/ml 16 days post-infection; -, no detectable p24^gag 1 month post-infection). Similar results were obtained with HIV-1 (LAI) and HIV-2 (ROD).

[2] = tested on: GalCer receptor; test: Binding of gp120 to GalCer (HPTLC binding assay)
Method: In another experiment with the same MBPCs, the effect of MBPCs on the binding of gp120 to GalCer was analyzed using a high performance thin layer chromatography (HPTLC) binding assay. MBPCs (10^-4 M) were preincubated with GalCer for 1 hour at room temperature. After thorough washing, the HPTLC plates were incubated with HIV-1 recombinant gp120 (2.5 ug/ml) followed by rabbit anti-gp120 and ^125 I-goat anti-rabbit IgG. The plates were washed in PBS and exposed to Amersham Hyperfilm MP for 8 hours. As shown in FIG. 5B treatment of HT-29 cells with active MBPCs protected the cells from infection by HIV-1 (NDK isolate). This antiviral effect was correlated with its ability to block the binding of gp120 to GalCer.

[3] = tested on: HIV; test: Inhibition of syncytia formation induced by HIV (summary statements); type: cell-based
Method: CEM or C8166 cells were chronically infected with HIV-1 Lai or HIV-2 Rod, or HIV-1MN, respectively. Infected cells (1×10^4) were incubated for 2 hours with various concentrations of MBPCs in 96-well plates. Uninfected Molt-4 cells (4×10^4) were then added in […]. Syncytia were counted after 18 hours at 37° C.

## (GPGRAF)16 -(K)8 -(K)4 -(K)2 -K-βA-OH [MBPC.12]
[1]
  block of the infectivity of HIV on human colon cells: completely block
[2]
  binding to / activity on the Galactosyl Ceramide receptor: bind to the second receptor
[3]
  MBPC concentration with which inhibiting effect on syncytia formation was observed in vitro: around 10^-6 M
  inhibiting effect on syncytia formation, in words: results similar to those of MBPC.3
